row,Compound,melting point
1,"O=C(Nc1n[nH]c(-c2ccc(F)cc2)c1-c1ccncc1)C(F)(F)F [Example 22, 5-(4-fluorophenyl)-4-(4-pyridyl)-3-trifluoroacetylaminopyrazole]",260.1 to 265.2 °C
2,"CCCCC(=O)Nc1n[nH]c(-c2ccc(F)cc2)c1-c1ccncc1 [Example 20, 5-(4-Fluorophenyl)-4-(4-pyridyl)-3-valerylaminopyrazole]",273.7 to 275.8 °C
3,"COc1ccc(CC(=O)Nc2n[nH]c(-c3ccc(F)cc3)c2-c2ccncc2)cc1 [Example 3, 5-(4-Fluorophenyl)-3-(4-methoxyphenylacetylanino)-4-(4-pyridyl)pyrazole]",265.1 to 266.2 °C
4,"Cn1nc(-c2ccc(F)cc2)c(-c2ccncc2)c1NC(=O)Cc1ccc(F)cc1F [Example 40, 5-(2,4-Difluorophenylacetylamino)-3-(4-fluorophenyl)-1-methyl-4-(4-pyridyl)pyrazole]",225.5 to 228.3 °C
5,"Cn1nc(-c2ccc(F)cc2)c(-c2ccncc2)c1NC(=O)Cc1c(F)cccc1Cl [Example 36, 5-(2-Chloro-6-fluorophenylacetylamino)-3-(4-fluorophenyl)-1-methyl-4-(4-pyridyl)pyrazole]",216.9 to 224.6 °C
6,CC(C)[C@H](N)C(=O)Nc1n[nH]c(-c2ccc(F)cc2)c1-c1ccncc1.Cl,205.3 to 206.4 °C
7,"O=C(Cc1ccncc1)Nc1n[nH]c(-c2ccc(F)cc2)c1-c1ccncc1 [Example 29, 5-(4-Fluorophenyl)-4-(4-pyridyl)-3-(4-pyridylacetylamino)pyrazole]",248.3 to 251.8 °C (dec.)
8,"Cn1nc(-c2ccc(F)cc2)c(-c2ccncc2)c1NC(=O)Cc1cccc(F)c1F [Example 49, 5-(2,3-Difluorophenylacetylamno)-3-(4-fluorophenyl)-1-methyl-4-(4-pyridyl)pyrazole]",181.3 to 182.5 °C
9,"O=C(Cc1ccsc1)Nc1n[nH]c(-c2ccc(F)cc2)c1-c1ccncc1 [Example 28, 5-(4-Fluorophenyl)-4-(4-pyridyl)-3-(3-thienylacetylamino)pyrazole]",279.6 to 282.9 °C (dec.)
10,"Cc1ccc(C)c(CC(=O)Nc2c(-c3ccncc3)c(-c3ccc(F)cc3)nn2C)c1 [Example 51, 5-(2,5-Dimethylphenylacetylanino)-3-(4-fluorophenyl)-1-methyl-4-(4-pyridyl)pyrazole]",179.9 to 185.1 °C
11,"O=C(Cc1ccccc1)Nc1n[nH]c(-c2ccc(F)cc2)c1-c1ccncc1 [Example 1, 5-(4-fluorophenyl)-3-phenylacetylamino-4-(4-pyridyl)pyrazole]",289.2 to 290.4 °C
12,"COCC(=O)Nc1n[nH]c(-c2ccc(F)cc2)c1-c1ccncc1 [Example 15, 5-(4-Fluorophenyl)-3-methoxyacetylamino-4-(4-pyridyl)pyrazole]",246 to 248 °C
13,"O=C(Cc1c(F)c(F)c(F)c(F)c1F)Nc1n[nH]c(-c2ccc(F)cc2)c1-c1ccncc1 [Example 31, 5-(4-Fluorophenyl)-3-(2,3,4,5,6-pentafluorophenylacetylamino)-4-(4-pyridyl)pyrazole]",≥ 325 °C
14,"O=C(Cc1ccc(F)cc1)Nc1n[nH]c(-c2ccc(F)cc2)c1-c1ccncc1 [Example 26, 5-(4-Fluorophenyl)-3-(4-fluorophenylacetylamino)-4-(4-pyridyl)pyrazole]",259.4 to 261.2 °C
15,"O=C(Cc1ccc([N+](=O)[O-])cc1)Nc1n[nH]c(-c2ccc(F)cc2)c1-c1ccncc1 [Example 27, 5-(4-Fluorophenyl)-3-(4-nitrophenylacetylamino)-4-(4-pyridyl)pyrazole]",299.3 to 302.3 °C
16,"COc1ccc(CC(=O)Nc2c(-c3ccncc3)c(-c3ccc(F)cc3)nn2C)cc1OC [Example 44, 5-(3,4-Dimethoxyphenylacetylamino)-3-(4-fluorophenyl)-1-methyl-4-(4-pyridyl)pyrazole]",174.4 to 180.3 °C
17,"C[C@H](NC(=O)OC(C)(C)C)C(=O)Nc1n[nH]c(-c2ccc(F)cc2)c1-c1ccncc1 [Example 86, 3-(N′-Carbo-t-butoxy-L-alanylamino)-5-(4-fluorophenyl)-4-(4-pyridyl)pyrazole]",223 to 224.7 °C
18,"CC(C)CC(=O)Nc1n[nH]c(-c2ccc(F)cc2)c1-c1ccncc1 [Example 19, 5-(4-Fluorophenyl)-3-isovalerylamino-4-(4-pyridyl)pyrazole]",291.1 to 294 °C
19,"COc1ccc(CC(=O)Nc2c(-c3ccncc3)c(-c3ccc(F)cc3)nn2C)cc1OC [Example 42, 5-(3,4-Dimethoxyphenylacetylamino)-3-(4-fluorophenyl)-1-methyl-4-(4-pyridyl)pyrazole]",128.1 to 129.6 °C

# Results, then the compound that gave them:
row,melting point,Compound
1,193.8 to 195.3 °C,"Cn1nc(NC(=O)Cc2ccccc2Cl)c(-c2ccncc2)c1-c1ccc(F)cc1 [Example 118, 3-(2-Chlorophenylacetylamino)-5-(4-fluorophenyl)-1-methyl-4-(4-pyridyl)pyrazole]"
2,180.3 to 183.6 °C,"O=C(Cc1ccccc1)Nc1c(-c2ccncc2)c(-c2ccc(F)cc2)nn1CCO [Example 105, 3-(4-Fluorophenyl)-1-(2-hydroxyethyl)-5-phenylacetylamino-4-(4-pyridyl)pyrazole]"
3,141.3 to 143.4 °C,"Cn1nc(-c2ccc(F)cc2)c(-c2ccncc2)c1NC(=O)Cc1ccncc1 [Example 78, 3-(4-Fluorophenyl)-1-methyl-4-(4-pyridyl)-5-(4-pyridylacetylamino)pyrazole]"
4,206.8 to 209.2 °C,"COc1ccccc1CC(=O)Nc1c(-c2ccncc2)c(-c2ccc(F)cc2)nn1C [Example 69, 3-(4-Fluorophenyl)-5-(2-methoxyphenylacetylamino)-1-methyl-4-(4-pyridyl)pyrazole]"
5,129.2 to 130.6 °C,"Cn1nc(-c2ccc(F)cc2)c(-c2ccncc2)c1NC(=O)Cc1c(F)ccc([N+](=O)[O-])c1Cl [Example 83, 5-(2-chloro-6-fluoro-3-nitrophenylacetylamino)-3-(4-fluorophenyl)-1-methyl-4-(4-pyridyl)pyrazole]"
6,172.3 to 176 °C,"COc1ccc(CC(=O)Nc2c(-c3ccncc3)c(-c3ccc(F)cc3)nn2C)cc1 [Example 64, 3-(4-Fluorophenyl)-5-(4-methoxyphenylacetylamino)-1-methyl-4-(4-pyridyl)pyrazole]"
7,199.8 to 202.1 °C,"Cn1nc(-c2ccc(F)cc2)c(-c2ccncc2)c1NC(=O)Cc1ccc(Br)cc1 [Example 59, 5-(4-Bromophenylacetylamino)-3-(4-fluorophenyl)-1-methyl-4-(4-pyridyl)pyrazole]"
8,287.5 to 290.2 °C,"Cn1nc(-c2ccc(F)cc2)c(-c2ccncc2)c1NC(=O)Nc1ccccc1 [Example 136, 3-(4-fluorophenyl)-1-methyl-5-(phenylaminocarbonylamino)-4-(4-pyridyl)pyrazole]"
9,279.3 to 280.1 °C,"Cn1nc(-c2ccc(Cl)c(Cl)c2)c(-c2ccncc2)c1NC(=O)Cc1ccc(F)cc1Cl [Example 115, 5-(2-Chloro-4-fluorophenylacetylamino)-3-(3,4-dichlorophenyl)-1-methyl-4-(4-pyridyl)pyrazole]"
10,135 to 141.2 °C,"COc1cccc(CC(=O)Nc2c(-c3ccncc3)c(-c3ccc(F)cc3)nn2C)c1 [Example 63, 3-(4-Fluorophenyl)-5-(3-methoxyphenylacetylamino)-1-methyl-4-(4-pyridyl)pyrazole]"
11,217.3 to 219.7 °C,"Cn1nc(-c2ccc(F)cc2)c(-c2ccncc2)c1NC(=O)Cc1ccc(F)cc1 [Example 62, 3-(4-Fluorophenyl)-5-(4-fluorophenylacetylamino)-1-methyl-4-(4-pyridyl)pyrazole]"
12,203.8 to 205.6 °C,"CN(C(=O)Cc1ccccc1Cl)c1c(-c2ccncc2)c(-c2ccc(F)cc2)nn1-c1ccccc1 [Example 130, 3-(4-Fluorophenyl)-5-[N-methyl-N-(2-chlorophenylacetyl)amino]-1-phenyl-4-(4-pyridyl)pyrazole]"
13,179.3 to 182.2 °C,"COc1ccc(CC(=O)Nc2c(-c3ccncc3)c(-c3ccc(F)cc3)nn2C)c(OC)c1 [Example 52, 5-(2,4-Dimethoxyphenylacetylamino)-3-(4-fluorophenyl)-1-methyl-4-(4-pyridyl)pyrazole]"
14,148.9 to 149.4 °C,"Cn1nc(-c2ccc(F)cc2)c(-c2ccncc2)c1NC(=O)Cc1ccccn1 [Example 76, 3-(4-Fluorophenyl)-1-methyl-4-(4-pyridyl)-5-(2-pyridylacetylamino)pyrazole]"
15,143.6 to 145.3 °C,"COc1ccccc1CC(=O)N(C)c1c(-c2ccncc2)c(-c2ccc(F)cc2)nn1C [Example 131, 3-(4-Fluorophenyl)-5-[N-methyl-N-(2-methoxyphenylacetyl)amino]-1-methyl-4-(4-pyridyl)pyrazole]"
16,210 to 214.9 °C,"CC(C(=O)Nc1c(-c2ccncc2)c(-c2ccc(F)cc2)nn1C)c1ccccc1 (stereo not shown) [Example 73, 3-(4-Fluorophenyl)-1-methyl-5-(2-phenylpropionylamino)-4-(4-pyridyl)pyrazole]"
17,181 to 183.3 °C,"O=S(=O)(Nc1n[nH]c(-c2ccc(F)cc2)c1-c1ccncc1)c1ccccc1 [Example 139, 5-(4-fluorophenyl)-3-phenylsulfonylamino-4-(4-pyridyl)pyrazole]"
18,78.5 to 80.2 °C,"Cn1nc(-c2ccc(F)cc2)c(-c2ccncc2)c1NC(=O)Cc1cccc(Br)c1 [Example 58, 5-(3-Bromophenylacetylamino)-3-(4-fluorophenyl)-1-methyl-4-(4-pyridyl)pyrazole]"
19,165.1 to 168.1 °C,"Cn1cccc1CC(=O)Nc1c(-c2ccncc2)c(-c2ccc(F)cc2)nn1C [Example 79, 3-(4-Fluorophenyl)-1-methyl-5-(1-methylpyrrol-2-ylacetylamino)-4-(4-pyridyl)pyrazole]"
20,242.4 to 244.1 °C,"O=C(Cc1ccccc1[N+](=O)[O-])Nc1n[nH]c(-c2ccc(F)cc2)c1-c1ccncc1 [Example 92, 5-(4-fluorophenyl)-3-(2-nitrophenylacetylamino)-4-(4-pyridyl)pyrazole]"
21,240.9 to 242.4 °C,"Cn1nc(-c2ccc(F)cc2)c(-c2ccncc2)c1NC(=O)Cc1ccccc1[N+](=O)[O-] [Example 65, 3-(4-Fluorophenyl)-1-methyl-5-(2-nitrophenylacetylamino)-4-(4-pyridyl)pyrazole]"

# — US6511997B1, “Aminopyrazole derivatives” (Teikoku Hormone Mfg. Co., Ltd., priority 1998, dated 2003)
